Reference: patent US7511048B2, “Pyrimidothienoindazoles” (Bayer Pharmaceuticals Corporation, priority 2004, dated 2009)
Where a name gives a salt, the structure may show the parent alone.

Legend:
[1] = test system: BT474 (human breast carcinoma); experiment: In vitro tumor cell proliferation assay (Cell Titer-Glo luminescent cell viability), BT474 cells; format: cell-based; details: BT-474, 72 h drug exposure, ATP luminescence readout, read-out: IC50, anti-proliferative activity (inhibition of cell proliferation) in BT474 cells
Text: (§1) The tumor cell proliferation assay used to test the compounds of the present invention involves a readout called Cell Titer-Glow® Luminescent Cell Viability Assay developed by Promega® (Cunningham, B A “A Growing Issue: Cell Proliferation Assays, Modern kits ease quantification of cell growth” The Scientist 2001, 15(13), 26, and Crouch, S P et al., “The use of ATP bioluminescence as a measure of cell proliferation and cytotoxicity” Journal of Immunological Methods 1993, 160, 81-88), that measures inhibition of cell proliferation. Generation of a luminescent signal corresponds to the amount of ATP present, which is directly proportional to the number of metabolically active (proliferating) cells.
(§2) A431 cells (human epidermoid carcinoma, ATCC # HTB-20) and BT474 (human breast carcinoma, ATCC # CRL-1555) were plated at a density of 2.5×10^3 cells/well in 96 well black-clear bottom tissue culture plates in RPMI media with 10% Fetal Bovine Serum and incubated at 37° C. Twenty-four h later, test compounds are added at a final concentration range from as high 100 μm to as low 64 pM depend on the activities of the tested compounds in serial dilutions at a final DMSO concentration of 0.1%. Cells were incubated for 72 h at 37° C. in complete growth media after addition of the test compound. After 72 h of drug exposure, the plates were equilibrated to room temperature for approximately 30 min. Then, using a Promega Cell Titer Glo Luminescent® assay kit, lysis buffer containing 100 microliters of the enzyme luciferase and its substrate, luciferin mixture, was added to each well. The plates were mixed for 2 min on orbital shaker to ensure cell lysis and incubated for 10 min at room temperature to stabilize luminescence signal. The samples were read on VICTOR 2 using Luminescence protocol, and analyzed with Analyze5 software to generate IC50 values.
(§3) For determination of IC50's, a linear regression analysis can be used to determine drug concentration which results in a 50% inhibition of cell proliferation using this assay format. In A431 cells, Examples 1-7, 9-11, 14-18, and 20-21 have IC50's≦5 μM; whereas examples 8, 12, 13, 19, and 22 have IC50's≦50 μM. In BT474 cells, examples 1-7, 9-11, 13-18, and 20-22 have IC50's≦50 μM; whereas examples 8, 12, and 19 have IC50's≦50 μM.

[2] = test system: A431 cells (human epidermoid carcinoma); experiment: In vitro tumor cell proliferation assay (Cell Titer-Glo luminescent cell viability), A431 cells; format: cell-based; details: A-431, 72 h drug exposure, ATP luminescence readout, read-out: IC50, anti-proliferative activity (inhibition of cell proliferation) in A431 cells
Text: as §1, §2, §3

Row | SMILES | IC50 [1] | IC50 [2]
1 | OCCn1cc2c(ccc3c2sc2ncnc(Nc4ccc(F)c(Cl)c4)c23)n1 [Example 1, 2-{6-[(3-chloro-4fluorophenyl)amino]-2H-pyrimido[5′,4′:4,5]thieno[2,3-e]indazol-2-yl}ethanol] | ≤ 50 µM | ≤ 5 µM
2 | CS(=O)(=O)OCCn1cc2c(ccc3c2sc2ncnc(Nc4ccc(F)c(Cl)c4)c23)n1 [Example 2, 2-{6-[(3-chloro-4fluorophenyl)amino]-2H-pyrimido[5′,4′:4,5]thieno[2,3-e]indazol-2-yl}ethylmethanesulfonate] | ≤ 50 µM | ≤ 5 µM
3 | CS(=O)(=O)CCNCCn1cc2c(ccc3c2sc2ncnc(Nc4ccc(F)c(Cl)c4)c23)n1 [Example 3, N-(3-chloro-4-fluorophenyl)-2-(2-{[2-(methylsulfonyl)ethyl]amino}ethyl)-2H-pyrimido[5′,4′:4,5]thieno[2,3-e]indazol-6-amine] | ≤ 50 µM | ≤ 5 µM
4 | CN(C)[C@@H]1CCN(CCn2cc3c(ccc4c3sc3ncnc(Nc5ccc(F)c(Cl)c5)c34)n2)C1 [Example 4] | ≤ 50 µM | ≤ 5 µM
5 | Fc1ccc(Nc2ncnc3sc4c5cn(CCNCCN6CCOCC6)nc5ccc4c23)cc1Cl [Example 5, N-(3-chloro-4-fluorophenyl)-2-{2-[(2-morpholin-4-ylethyl)amino]ethyl}-2H-pyrimido[5′,4′:4,5]thieno[2,3-e]indazol-6-amine] | ≤ 50 µM | ≤ 5 µM
6 | COCCNCCn1cc2c(ccc3c2sc2ncnc(Nc4ccc(F)c(Cl)c4)c23)n1 [Example 6, N-(3-chloro-4-fluorophenyl)-2-{2-[(2-methoxyethyl)amino]ethyl}-2H-pyrimido[5′,4′:4,5]thieno[2,3-e]indazol-6-amine] | ≤ 50 µM | ≤ 5 µM
7 | OCCNCCn1cc2c(ccc3c2sc2ncnc(Nc4ccc(F)c(Cl)c4)c23)n1 [Example 7, 2-[(2-{6-[(3-chloro-4-fluorophenyl)amino]-2H-pyrimido[5′,4′:4,5]thieno[2,3-e]indazol-2-yl}ethyl)amino]ethanol] | ≤ 50 µM | ≤ 5 µM
8 | COCCN(CCOC)CCn1cc2c(ccc3c2sc2ncnc(Nc4ccc(F)c(Cl)c4)c23)n1 [Example 8, 2-{2-[bis(2-methoxyethyl)amino]ethyl}-N-(3-chloro-4-fluorophenyl)-2H-pyrimido[5′,4′:4,5]thieno[2,3-e]indazol-6-amine] | ≤ 50 µM | ≤ 50 µM
9 | Fc1ccc(Nc2ncnc3sc4c5cn(CCN6CCOCC6)nc5ccc4c23)cc1Cl [Example 9, N-(3-chloro-4-fluorophenyl)-2-(2-morpholin-4-ylethyl)-2H-pyrimido[5′,4′:4,5]thieno[2,3-e]indazol-6-amine] | ≤ 50 µM | ≤ 5 µM
10 | Fc1ccc(Nc2ncnc3sc4c5cn(CCN6CCNCC6)nc5ccc4c23)cc1Cl [Example 10, N-(3-chloro-4-fluorophenyl)-2-(2-piperazin-1-ylethyl)-2H-pyrimido[5′,4′:4,5]thieno[2,3-e]indazol-6-amine] | ≤ 50 µM | ≤ 5 µM
11 | CN1CCN(CCn2cc3c(ccc4c3sc3ncnc(Nc5ccc(F)c(Cl)c5)c34)n2)CC1 [Example 11, N-(3-chloro-4-fluorophenyl)-2-[2-(4-methylpiperazin-1-yl)ethyl]-2H-pyrimido[5′,4′:4,5]thieno[2,3-e]indazol-6-amine] | ≤ 50 µM | ≤ 5 µM
12 | Fc1ccc(Nc2ncnc3sc4c5cn(CCn6ccnc6)nc5ccc4c23)cc1Cl [Example 12, N-(3-chloro-4-fluorophenyl)-2-[2-(1H-imidazol-1-yl)ethyl]-2H-pyrimido[5′,4′:4,5]thieno[2,3-e]indazol-6-amine] | ≤ 50 µM | ≤ 50 µM
13 | CN(C)[C@H]1CCN(CCn2cc3c(ccc4c3sc3ncnc(Nc5ccc(F)c(Cl)c5)c34)n2)C1 [Example 13, N-(3-chloro-4-fluorophenyl)-2-{2-[(3S)-3-(dimethylamino)pyrrolidin-1-yl]ethyl}-2H-pyrimido[5′,4′:4,5]thieno[2,3-e]indazol-6-amine] | ≤ 50 µM | ≤ 50 µM
14 | OCCN(CCO)CCn1cc2c(ccc3c2sc2ncnc(Nc4ccc(F)c(Cl)c4)c23)n1 [Example 14, 2,2′-[(2-{6-[(3-chloro-4-fluorophenyl)amino]-2H-pyrimido[5′,4′:4,5]thieno[2,3-e]indazol-2-yl}ethyl)imino]diethanoltrifluoroacetate (salt)] | ≤ 50 µM | ≤ 5 µM
15 | COCCN1CCN(CCn2cc3c(ccc4c3sc3ncnc(Nc5ccc(F)c(Cl)c5)c34)n2)CC1 [Example 15, N-(3-chloro-4-fluorophenyl)-2-{2-[4-(2-methoxyethyl)piperazin-1-yl]ethyl}-2H-pyrimido[5′,4′:4,5]thieno[2,3-e]indazol-6-amine] | ≤ 50 µM | ≤ 5 µM
16 | Fc1ccc(Nc2ncnc3sc4c5cn(CCN6CCCCC6)nc5ccc4c23)cc1Cl [Example 16, N-(3-chloro-4-fluorophenyl)-2-(2-piperidin-1-ylethyl)-2H-pyrimido[5′,4′:4,5]thieno[2,3-e]indazol-6-amine] | ≤ 50 µM | ≤ 5 µM
17 | Fc1ccc(Nc2ncnc3sc4c5cn(CCN6CCCC6)nc5ccc4c23)cc1Cl [Example 17, N-(3-chloro-4-fluorophenyl)-2-(2-pyrrolidin-1-ylethyl)-2H-pyrimido[5′,4′:4,5]thieno[2,3-e]indazol-6-amine] | ≤ 50 µM | ≤ 5 µM
18 | Fc1ccc(Nc2ncnc3sc4c5cn(CCN6CCN(Cc7ccncc7)CC6)nc5ccc4c23)cc1Cl [Example 18, N-(3-chloro-4-fluorophenyl)-2-{2-[4-(pyridin-4-ylmethyl)piperazin-1-yl]ethyl}-2H-pyrimido[5′,4′:4,5]thieno[2,3-e]indazol-6-amine] | ≤ 50 µM | ≤ 5 µM
19 | COCCN(C)CCn1cc2c(ccc3c2sc2ncnc(Nc4ccc(F)c(Cl)c4)c23)n1 [Example 19, N-(3-chloro-4-fluorophenyl)-2-{2-[(2-methoxyethyl)(methyl)amino]ethyl}-2H-pyrimido[5′,4′:4,5]thieno[2,3-e]indazol-6-amine] | ≤ 50 µM | ≤ 50 µM
20 | CN(C)[C@H]1CCN(CCn2ncc3c4sc5ncnc(Nc6ccc(F)c(Cl)c6)c5c4ccc32)C1 [Example 20, N-(3-chloro-4-fluorophenyl)-3-{2-[(3S)-3-(dimethylamino)pyrrolidin-1-yl]ethyl}-3H-pyrimido[5′,4′:4,5]thieno[2,3-e]indazol-6-amine] | ≤ 50 µM | ≤ 5 µM
21 | OCCn1ncc2c3sc4ncnc(Nc5ccc(OCc6cccc(F)c6)c(Cl)c5)c4c3ccc21 [Example 21, 2-[6-({3-chloro-4-[(3-fluorobenzyl)oxy]phenyl}amino)-3H-pyrimido[5′,4′:4,5]thieno[2,3-e]indazol-3-yl]ethanol] | ≤ 50 µM | ≤ 5 µM
22 | Clc1cc(Nc2ncnc3sc4c(ccc5c4cnn5CCBr)c23)ccc1OCc1ccccn1 [Example 22, 3-(2-bromoethyl)-N-[3-chloro-4-(pyridin-2-ylmethoxy)phenyl]-3H-pyrimido[5′,4′:4,5]thieno[2,3-e]indazol-6-amine] | ≤ 50 µM | ≤ 50 µM
